Source: ChEMBL document CHEMBL1201862, “PubChem BioAssay data set” (2004)
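Cultured in 96-well plates, cells were exposed to test compound for 48 hours across five concentrations. GI50 is the concentration that inhibits growth by half.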 Active and inactive are the calls of the source. Cut-off read from the data, not from the text of the source: active = GI50 up to about 1.1 µM and inactive = higher.

Legend:
Test in all cases: NCI-60 cell line screen, 48 h
HCC 2998 = tested on: HCC 2998
RPMI-8226 = tested on: RPMI-8226
KM12 = tested on: KM12
MDA-MB-435 = tested on: MDA-MB-435
786-0 = tested on: 786-0
IGROV-1 = tested on: IGROV-1
EKVX = tested on: EKVX
U-251 = tested on: U-251
SK-MEL-5 = tested on: SK-MEL-5
UACC-257 = tested on: UACC-257
DU-145 = tested on: DU-145
SF-539 = tested on: SF-539
OVCAR-8 = tested on: OVCAR-8
LOX IMVI = tested on: LOX IMVI
M14 = tested on: M14
UO-31 = tested on: UO-31
SNB-19 = tested on: SNB-19
CAKI-1 = tested on: CAKI-1
SF-268 = tested on: SF-268

Measured: GI50

Cc1cc(=O)[nH]c(-n2[nH]c(C)c(CCO)c2=O)n1
inactive: HCC 2998 > 100 µM | RPMI-8226 > 100 µM | KM12 > 100 µM | MDA-MB-435 > 100 µM | 786-0 > 100 µM | IGROV-1 > 100 µM | EKVX > 100 µM | U-251 > 100 µM | SK-MEL-5 > 100 µM | UACC-257 > 100 µM | DU-145 > 100 µM | SF-539 > 100 µM | OVCAR-8 > 100 µM | LOX IMVI > 100 µM | M14 > 100 µM | UO-31 > 100 µM | SNB-19 > 100 µM | CAKI-1 > 100 µM | SF-268 > 100 µM

O=[N+]([O-])c1cc(Cl)cc2cc(Cl)cnc12
inactive: HCC 2998 > 100 µM | RPMI-8226 > 100 µM | MDA-MB-435 > 100 µM | 786-0 > 100 µM | IGROV-1 7.35 µM | EKVX 83.2 µM | U-251 > 100 µM | SK-MEL-5 62.5 µM | UACC-257 61.4 µM | DU-145 > 100 µM | SF-539 > 100 µM | OVCAR-8 98.9 µM | LOX IMVI > 100 µM | M14 > 100 µM | UO-31 > 100 µM | SNB-19 > 100 µM | CAKI-1 > 100 µM | SF-268 > 100 µM

CCOC(=O)c1nc[nH]c1/N=N/N(C)N
inactive: HCC 2998 > 100 µM | RPMI-8226 46.6 µM | KM12 1.87 µM | MDA-MB-435 > 100 µM | 786-0 84.7 µM | IGROV-1 > 100 µM | EKVX > 100 µM | U-251 65 µM | SK-MEL-5 > 100 µM | UACC-257 > 100 µM | DU-145 > 100 µM | SF-539 > 100 µM | OVCAR-8 > 100 µM | LOX IMVI 92.5 µM | M14 > 100 µM | UO-31 > 100 µM | CAKI-1 15.4 µM | SF-268 > 100 µM

Cc1ccc2[nH]c3[nH]c(=S)[nH]c(=O)c3c2c1
inactive: HCC 2998 > 100 µM | RPMI-8226 72.8 µM | KM12 > 100 µM | MDA-MB-435 > 100 µM | 786-0 > 100 µM | IGROV-1 > 100 µM | EKVX > 100 µM | SK-MEL-5 > 100 µM | UACC-257 > 100 µM | DU-145 > 100 µM | SF-539 > 100 µM | OVCAR-8 > 100 µM | LOX IMVI > 100 µM | M14 > 100 µM | UO-31 > 100 µM | SNB-19 > 100 µM | CAKI-1 > 100 µM | SF-268 > 100 µM
